pKi: −log10 of the molar value. Like-named read-outs stand apart in the source and are kept apart here.

The target of data set [1] is T1, human membrane folate-binding protein (mFBP) (Homo sapiens, UniProt P15328).
T1 construct: mFBP prepared from cultured KB cells (human nasopharyngeal carcinoma cells); endogenous in cells
Nature of the data set: competitive binding assay against 3H-folic acid with mFBP prepared from KB cells. The text has this: The dissociation constant (Kd) of the preferred inhibitors of the present invention for human membrane folate-binding protein (mFBP) can be determined in a competitive binding assay using mFBP prepared from cultured KB cells (human nasopharyngeal carcinoma cells) as disclosed in U.S. Pat. No. 5,646,141, the disclosures of which is hereby incorporated by reference in its entirety.
Human membrane folate binding protein can be obtained from KB cells by methods well known in the art. KB cells are washed, sonicated for cell lysis and centrifuged to form pelleted cells. The pellet can then be stripped of endogenous bound folate by resuspension in acidic buffer (KH2PO4—KOH and 2-mercaptoethanol) and centrifuged again. The pellet is then resuspended and the protein content quantitated using the Bradford method with bovine serum albumin (BSA) as standard.
Disassociation constants are determined by allowing, the test inhibitor to compete against ^3H-folic acid for binding to mFBP. Reaction mixtures are designed to generally contain mFBP, ^3H-folic acid, and various concentrations of the subject test inhibitor in acidic buffer (KH2PO4—KOH and 2-mercaptoethanol). The competition reaction is typically conducted at 25°. Because of the slow nature of release of bound ^3H-folic acid, the test inhibitor may be prebound prior to addition of bound ^3H-folic acid, after which the reaction should be allowed to equilibriate. The full reaction mixtures then should be drawn through nitrocellulose filters to isolate the cell membranes with bound ^3H-folic acid. The trapped mFBP are then washed and measured by scintillation counting. The data can then be nonlinearly fitted as described above in determining Ki. The mFBP Kd for ^3H-folic acid, used for calculating the competitor Kd, can be obtained by directly titrating mFBP with ^3H-folate. The mFBP Kd can then be used to calculate the competitor Kd by nonlinear fitting of the data to an equation for tight-binding Kc. Table 1 below provides the Kd values of several GARFT inhibitors using the assay described above.

Data set [2] has as its system MTAP-competent SK-MES-1 non-small cell lung cancer cells. Nature of the data set: MTT growth inhibition by Compound 7 with and without MTA. The class given is cell-based, human. How it is done:
All cell lines were purchased from the American Type Culture Collection. All cultures were maintained at 37° C., in 5% air-CO2 atmosphere in a humidified incubator.
Cells were plated in columns 2-12 of a 96-well microtiter plate, with column 2 designated as the vehicle control. The same volume of medium was added to column 1. Column 1 was designated as the media control. After a 4-hour incubation, the cells were treated with Compound 7, with or without a non-growth inhibitory concentration of MTA, in quadruplicate wells. […] MTT (4,5-dimethylthiazol-2-yl)-2,5-diphenyl tetrazolium bromide; Sigma, St. Louis, Mo.) was added to a final concentration of 0.25-1 mg/ml in each well, and the plates were incubated for 4 hours. The liquid was removed from each well. DMSO was added to each well, then the plates were vortexed slowly in the dark for 7-20 minutes. The formazin product was quantified spectrophotometrically at […] on a Molecular Devices Vmax™ kinetic microplate reader.

Data set [3] has as its system human pancreatic BxPC-3 tumor. Briefly: antitumor activity in MTAP-deficient xenograft model. The class given is in vivo, mice. The text has this: (§1) To evaluate the in vivo effect of combination therapy on known human MTAP-deficient tumors, an MTAP-deficient cell line was introduced to mice to produce xenograft MTAP-deficient tumors. 108 BALB/c/nu/nu female mice bearing subcutaneous tumor fragments produced from the MTAP-deficent BxPC-3 cell line were housed 3 per cage with free access to food and water. Mice were fed a folate-deficient chow (#Td84052, Harlan Teklad, Madison, Wis.) beginning 14 days prior to initiation of drug treatment and continuing throughout the study. After randomization by tumor volume into 8 treatment groups and assigning the remaining 12 mice to group 7, beginning on the twenty-first day after tumor implant mice were dosed with Compound 7 daily for 4 days, and with MTA or vehicle twice-a-day for 8 days, in the amounts indicated in Table 7 below. The vehicle for both compounds was 0.75% sodium bicarbonate in water (7.5% NaHCO3 solution (Cellgro #25-035-4, Mediatech, Herndon, Va.) diluted 1:10 in sterile water for injection (Butler, Columbus, Ohio)) under pH adjusted to 7.0-7.4. Solutions were sterilized by filtration through 0.22 micron polycarboniate filters (Cameo 25GAS, Micron Separations Inc., Westboro, Mass.). Tumor volumes and animal weight loss, which is an indicator of toxicity, were recorded daily for 14 days at the same time of day, then on a Monday, Wednesday, Friday schedule for the remainder of the study.

A short description of data set [4]: animal weight loss (toxicity) in BxPC-3 xenograft study. The class given is in vivo. The following applies: 40 mg/kg Compound 7 plus 50 mg/kg MTA versus 2.5 mg/kg Compound 7 alone, folate-deficient diet.
Description: as §1, with “Solutions were sterilized by filtration through 0.22 micron polycarboniate filters (Cameo 25GAS, Micron Separations Inc., Westboro, Mass.).” left out

For data set [5] the following is noted: mouse, in vivo. The protocol:
A series of experiments were undertaken in order to evaluate the in vivo effect of schedule of administration of MTA on reduction of […] induced by […]. BALB/c/nu/nu female mice were housed 3 per cage with free access to food and water. Mice were fed a folate-deficient chow (#Td84052, Harlan-Teklad, Madison, Wis.) for at least 14 days prior to initiation of drug treatment and continuing throughout the study. Animal weight loss, which is a measure of toxicity, was recorded at least daily for 18 days at the same time of day. Table 11 presents a summary of data from multiple experiments, i.e., at least two experiments for each schedule. […] To produce this effect, MTA must be administered at the beginning of treatment with Compound 7 and continuing until after treatment with Compound 7. Further, since the activity of Compound 7 continues for at least a few days after the last dose was administered, to produce an effect MTA must be administered during this period of activity, i.e. for at least 2 days after the last dose of the cytotoxic was administered.

Data set [6] deals with T1, human membrane folate-binding protein (mFBP). The conditions noted are these: relative to lometrexol; cited from earlier work.
The target of another data set is T2, GARFT (Homo sapiens, UniProt P22102).
T2 construct: The GART domain (residues 808-1010) of the trifunctional human GARS-AIRS-GART enzyme was purified; made in house
The following applies: read-out: Ki (GARFT inhibitor); cited from earlier work.

T1 sequence (P15328 25-234): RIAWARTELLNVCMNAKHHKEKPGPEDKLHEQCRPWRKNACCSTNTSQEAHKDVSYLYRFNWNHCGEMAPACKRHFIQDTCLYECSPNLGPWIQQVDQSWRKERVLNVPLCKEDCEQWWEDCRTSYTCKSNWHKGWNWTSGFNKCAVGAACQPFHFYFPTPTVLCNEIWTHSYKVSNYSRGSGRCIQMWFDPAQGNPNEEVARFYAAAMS
T2 sequence (P22102 808-1010): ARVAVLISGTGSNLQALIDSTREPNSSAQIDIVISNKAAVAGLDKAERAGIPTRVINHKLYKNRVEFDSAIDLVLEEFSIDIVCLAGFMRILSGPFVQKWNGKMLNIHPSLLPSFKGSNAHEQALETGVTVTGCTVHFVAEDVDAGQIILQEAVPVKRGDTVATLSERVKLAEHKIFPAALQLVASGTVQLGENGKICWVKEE

Broadly, the Kd is the equilibrium constant for the complex coming apart. A high value points to lower affinity. As usually defined, the pKi is the Ki on a negative log10 scale, so that one unit is a factor of ten. In turn, `Cc1cc(C(=O)N[C@@H](CCC(=O)O)C(=O)O)sc1CC[C@@H]1CNc2nc(N)[nH]c(=O)c2C1` (single isomer, unassigned) [Compound 7] returned a dissociation constant (Kd) in data set [1] of 290 nM. Further, the “cell growth inhibition as a single agent” value in data set [2] (SK-MES-1, 168 h, FIG. 3) is recorded as “fully inhibited cell growth”. Also, the “cell number at the highest concentration of Compound 7 tested” value in data set [2] (with 10 μM MTA, up to approximately 60 times the IC50 of Compound 7) is reported as “about 75 % of control”. The “Time to 1000 mm^3 (days) Mean” value was 32.3 days in data set [3] (2.5 mg/kg Compound 7 qd x4), 32.1 days in data set [3] (5 mg/kg Compound 7 qd x4) and 34.0 days in data set [3] (10 mg/kg Compound 7 qd x4). The “Time to 1000 mm^3 (days) Median” value is 32.4 days in data set [3] (2.5 mg/kg Compound 7 qd x4), 32.4 days in data set [3] (5 mg/kg Compound 7 qd x4), 33.4 days in data set [3] (10 mg/kg Compound 7 qd x4) and 36.4 days in data set [3] (20 mg/kg Compound 7 qd x4). In data set [3] (MTA twice a day 8 days, Compound 7 daily 4 days, nu/nu tumor-bearing mice, folate-deficient diet), the “increase of therapeutic window” value amounted to 16 fold. Moreover, the “reduction in toxicity (weight loss)” value in data set [4] amounted to 16 fold. The “Increase in Compound 7 maximum tolerated dose (-fold dose)” value in data set [5] (female, BALB/c/nu/nu) is given as 4 -fold dose; in data set [5], “None”. The “binds less tightly than lometrexol to mFBP” value in data set [6] is “about 1400 fold”. On GARFT, the pKi is 9.30.

Source of the values: patent US20040043959A1, “Combination therapies for treating methylthioadenosine phosphorylase deficient cells” (priority 2002, published 2004).
